Where two headings read alike, the source gives them in different places.
How the values were obtained:
[1] = system: HCV replicon genotype 1a; assay: HCV replicon assay, genotype 1a (cell ELISA for NS3/4A); assay type: cell-based, hepatitis C virus
Protocol: (§1) The HCV NS5B inhibitory activity of the present compounds may be tested using assays known in the art. The HCV NS5B polymerase inhibitors described herein have activities in a genotype 1b replicon assay as described in the Examples. The assay is performed by incubating a replicon harboring cell-line in the presence of inhibitor for a set period of time and measuring the effect of the inhibitor on HCV replicon replication either directly by quantifying replicon RNA level, or indirectly by measuring enzymatic activity of a co-encoded reporter enzyme such as luciferase or β-lactamase. By performing a series of such measurements at different inhibitor concentrations, the effective inhibitory concentration of the inhibitor (EC50 or EC90) is determined. See Jan M. Vrolijk et al., A replicons-based bioassay for the measurement of interferons in patients with chronic hepatitis C, 110 J. VIROLOGICAL METHODS 201 (2003). Such assays may also be run in an automated format for high through-put screening. See Paul Zuck et al., A cell-based β-lactamase reporter gene assay for the identification of inhibitors of hepatitis C virus replication, 334 ANALYTICAL BIOCHEMISTRY 344 (2004).
(§2) Measurement of inhibition by compounds was performed using the HCV replicon system. Several different replicons encoding different HCV genotypes or mutations were used. In addition, potency measurements were made using different formats of the replicon assay, including different ways of measurements and different plating formats. See Jan M. Vrolijk et al., A replicons-based bioassay for the measurement of interferons in patients with chronic hepatitis C, 110 J. VIROLOGICAL METHODS 201 (2003); Steven S. Carroll et al., Inhibition of Hepatitis C Virus RNA Replication by 2′-Modified Nucleoside Analogs, 278(14) J. BIOLOGICAL CHEMISTRY 11979 (2003). However, the underlying principles are common to all of these determinations, and are outlined below.
(§3) Stable neomycin phosphotransferase encoding replicons-harboring cell lines were used, so all cell lines were maintained under G418 selection prior to the assay. Potency was deteremined using a cell ELISA assay with an antibody to the replicons encoded NS3/4a protease. See Caterina Trozzi et al., In Vitro Selection and Characterization of Hepatitis C Virus Serine Protease Variants Resistant to an Active-Site Peptide Inhibitor, 77(6) J. Virol. 3669 (2003). To initiate an assay, replicon cells were plated in the presence of a dilution series of test compound in the absence of G418. Typically, the assays were performed in a 96-well plate formate for manual operation, or a 384-well plate format for automated assay. Replicon cells and compound were incubated for 96 hours. At the end of the assay, cells were washed free of media and compound, and the cells were then lysed. RNA was quantified indirectly through detection of replicon-encoded NS3/4A protein levels, through an ELISA-based assay with an antibody specific for NS3/4A. IC50 determinations were calculated as a percentage of a DMSO control by fitting the data to a four-parameter fit function and the data obtained is provided in the table below.
(§4) Data for selected compounds of the present invention was obtained for genotypes 1a and 1b using this method and is provided in the table below: […]

[2] = system: HCV replicon genotype 1b; assay: HCV replicon assay, genotype 1b (cell ELISA for NS3/4A); assay type: cell-based, hepatitis C virus
Protocol: as §1, §2, §3, §4

[3] = Hepatitis C virus, 96 h, read-out: 1a IC50 (nM), HCV genotype 1a replicon cells, 96 hours incubation, NS3/4A ELISA readout, % of DMSO control
[4] = Hepatitis C virus, 96 h, read-out: 1b IC50 (nM), HCV genotype 1b replicon cells, 96 hours incubation, NS3/4A ELISA readout, % of DMSO control

Row | SMILES | IC50 [1, 3] [nM] | IC50 [2, 4] [nM] | IC50 ([1]; read-out: 1a IC50, HCV genotype 1a replicon cells, 96 hours incubation, NS3/4A ELISA readout, % of DMSO control) [nM] | IC50 ([2]; read-out: 1b IC50, HCV genotype 1b replicon cells, 96 hours incubation, NS3/4A ELISA readout, % of DMSO control) [nM]
1 | CNC(=O)c1c(-c2ccc(F)cc2)oc2cc(N(C)S(C)(=O)=O)c([C@@H]3CCCN(C(=O)c4ccc(F)cc4)C3)cc12 (single isomer, unassigned) [Example 19, 5-(1-(4-fluorobenzoyl)piperidin-3-yl)-2-(4-fluorophenyl)-N-methyl-6-(N-methylmethylsulfonamido)benzofuran-3-carboxamide] | 43.8 | 50.8 | – | –
2 | CNC(=O)c1c(-c2ccc(F)cc2)oc2cc(N(C)S(C)(=O)=O)c([C@@H]3CCCN(S(=O)(=O)CCc4ccccc4)C3)cc12 [Example 124, 2-(4-fluorophenyl)-N-methyl-6-[methyl(methylsulfonyl)amino]-5-{(3S)-1-[(2-phenylethyl)sulfonyl]piperidin-3-yl}-1-benzofuran-3-carboxamide] | 182 | 72.9 | – | –
3 | CNC(=O)c1c(-c2ccc(F)cc2)oc2cc(N(C)S(C)(=O)=O)c([C@H]3CCCN(S(=O)(=O)c4cccc(C)c4)C3)cc12 [Example 142, 2-(4-fluorophenyl)-N-methyl-6-[methyl(methylsulfonyl)amino]-5-{(3R)-1-[(3-methylphenyl)sulfonyl]piperidin-3-yl}-1-benzofuran-3-carboxamide] | 198 | 91.7 | – | –
4 | CNC(=O)c1c(-c2ccc(F)cc2)oc2cc(N(C)S(C)(=O)=O)c([C@H]3CCCN(S(=O)(=O)c4ccc(F)cc4)C3)cc12 [Example 131, 2-(4-fluorophenyl)-5-{(3R)-1-[(4-fluorophenyl)sulfonyl]piperidin-3-yl}-N-methyl-6-[methyl(methylsulfonyl)amino]-1-benzofuran-3-carboxamide] | 176 | 88.9 | – | –
5 | CNC(=O)c1c(-c2ccc(F)cc2)oc2cc(N(C)S(C)(=O)=O)c([C@H]3CCCN(C(=O)Cc4ccc5nccnc5c4)C3)cc12 [Example 95, 2-(4-fluorophenyl)-N-methyl-6-[methyl(methylsulfonyl)amino]-5-[(3R)-1-(quinoxalin-6-ylacetyl)piperidin-3-yl]-1-benzofuran-3-carboxamide] | 176 | 106 | – | –
6 | CNC(=O)c1c(-c2ccc(F)cc2)oc2cc(N(C)S(C)(=O)=O)c([C@@H]3CCCN(S(=O)(=O)c4cc5cccc(F)c5[nH]4)C3)cc12 [Example 2, (S)-5-(1-((7-fluoro-1H-indol-2-yl)sulfonyl)piperidin-3-yl)-2-(4-fluorophenyl)-N-methyl-6-(N-methylmethylsulfonamido)benzofuran-3-carboxamide] | 84.1 | 41 | – | –
7 | CNC(=O)c1c(-c2ccc(F)cc2)oc2cc(N(C)S(C)(=O)=O)c([C@H]3CCCN(C(=O)c4nc5ccccc5[nH]4)C3)cc12 [Example 87, 5-[(3R)-1-(1H-benzimidazol-2-ylcarbonyl)piperidin-3-yl]-2-(4-fluorophenyl)-N-methyl-6-[methyl(methylsulfonyl)amino]-1-benzofuran-3-carboxamide] | 267 | 112 | – | –
8 | CNC(=O)c1c(-c2ccc(F)cc2)oc2cc(N(C)S(C)(=O)=O)c([C@H]3CN(C(=O)c4cc5cccc(F)c5[nH]4)CCO3)cc12 (single isomer, unassigned) [Example 6, 5-(4-(7-fluoro-1H-indole-2-carbonyl)morpholin-2-yl)-2-(4-fluorophenyl)-N-methyl-6-(N-methylmethylsulfonamido)benzofuran-3-carboxamide] | 11.1 | 17.4 | – | –
9 | CNC(=O)c1c(-c2ccc(F)cc2)oc2cc(N(C)S(C)(=O)=O)c([C@H]3CCCN(C(=O)c4nn(C)c(=O)c5ccccc45)C3)cc12 [Example 96, 2-(4-fluorophenyl)-N-methyl-6-[methyl(methylsulfonyl)amino]-5-{(3R)-1-[(3-methyl-4-oxo-3,4-dihydrophthalazin-1-yl)carbonyl]piperidin-3-yl}-1-benzofuran-3-carboxamide] | 423 | 219 | – | –
10 | CNC(=O)c1c(-c2ccc(F)cc2)oc2cc(N(C)S(C)(=O)=O)c([C@@H]3CCCN(C(=O)c4coc(-c5ccc(F)cc5)n4)C3)cc12 [Example 72, 2-(4-fluorophenyl)-5-(1-{[2-(4-fluorophenyl)-1,3-oxazol-4-yl]carbonyl}piperidin-3-yl)-N-methyl-6-[methyl(methylsulfonyl)amino]-1-benzofuran-3-carboxamide] | 125 | 23.6 | – | –
11 | CNC(=O)c1c(-c2ccc(F)cc2)oc2cc(N(C)S(C)(=O)=O)c([C@@H]3CCCN(C(=O)C4CC4c4ccc(F)cc4)C3)cc12 (stereo in doubt) [Example 61, 2-(4-fluorophenyl)-5-(1-{[2-(4-fluorophenyl)cyclopropyl]carbonyl}piperidin-3-yl)-N-methyl-6-[methyl(methylsulfonyl)amino]-1-benzofuran-3-carboxamide] | 251 | 99.5 | – | –
12 | CNC(=O)c1c(-c2ccc(F)cc2)oc2cc(N(C)S(C)(=O)=O)c([C@H]3CCCN(C(=O)[C@@H](NC(=O)OC(C)(C)C)c4ccccc4F)C3)cc12 [Example 94, tert-butyl {(1S)-1-(2-fluorophenyl)-2-[(3R)-3-{2-(4-fluorophenyl)-3-(methylcarbamoyl)-6-[methyl(methylsulfonyl)amino]-1-benzofuran-5-yl}piperidin-1-yl]-2-oxoethyl}carbamate] | 300 | 168 | – | –
13 | CNC(=O)c1c(-c2ccc(F)cc2)oc2cc(N(C)S(C)(=O)=O)c([C@@H]3CCCN(S(=O)(=O)c4ccc(C)cc4)C3)cc12 [Example 113, 2-(4-fluorophenyl)-N-methyl-6-[methyl(methylsulfonyl)amino]-5-{(3S)-1-[(4-methylphenyl)sulfonyl]piperidin-3-yl}-1-benzofuran-3-carboxamide] | 64.6 | 21.9 | – | –
14 | CNC(=O)c1c(-c2ccc(F)cc2)oc2cc(N(C)S(C)(=O)=O)c([C@@H]3CCCN(S(=O)(=O)c4cnc5n4CCCCC5)C3)cc12 [Example 125, 2-(4-fluorophenyl)-N-methyl-6-[methyl(methylsulfonyl)amino]-5-[(3S)-1-(6,7,8,9-tetrahydro-5H-imidazo[1,2-a]azepin-3-ylsulfonyl)piperidin-3-yl]-1-benzofuran-3-carboxamide] | 172 | 67.6 | – | –
15 | CNC(=O)c1c(-c2ccc(F)cc2)oc2cc(N(C)S(C)(=O)=O)c(C3CC(c4nc5c(F)cccc5o4)CN(C)C3)cc12 (stereo not shown) [Example 1, 5-(5-(4-fluorobenzo[d]oxazol-2-yl)-1-methylpiperidin-3-yl)-2-(4-fluorophenyl)-N-methyl-6-(N-methylmethylsulfonamido)benzofuran-3-carboxamide] | 56.9 | 34.3 | – | –
16 | CNC(=O)c1c(-c2ccc(F)cc2)oc2cc(N(C)S(C)(=O)=O)c([C@H]3CCCN(S(=O)(=O)c4c(Cl)nc5sccn45)C3)cc12 [Example 133, 5-{(3R)-1-[(6-chloroimidazo[2,1-b][1,3]thiazol-5-yl)sulfonyl]piperidin-3-yl}-2-(4-fluorophenyl)-N-methyl-6-[methyl(methylsulfonyl)amino]-1-benzofuran-3-carboxamide] | 106 | 74.7 | – | –
17 | CNC(=O)c1c(-c2ccc(F)cc2)oc2cc(N(C)S(C)(=O)=O)c([C@@H]3CCCN(c4nc5ncccc5o4)C3)cc12 (single isomer, unassigned) [Example 54, 2-(4-fluorophenyl)-N-methyl-6-(N-methylmethylsulfonamido)-5-(1-(oxazolo[4,5-b]pyridin-2-yl)piperidin-3-yl)benzofuran-3-carboxamide] | – | – | 7.38 | 13.9
